ChEMBL document CHEMBL3885861, “Open TG-GATES”

Species: Rattus norvegicus
Assay: Open TG-GATES - Regimen: Daily Repeat
Type: toxicity, organism-based, Sprague-Dawley
Design: regimen Daily Repeat, gender Male, age 6 weeks
Conditions: in vivo, po, route gavage; for APTT / Bas / Eos / Fbg / Hb / Ht / Lym / MCH / MCHC / MCV / Mono / Neu / PT / Plat / RBC / Ret / WBC: tissue Blood; for KIDNEY_L / KIDNEY_R / KIDNEY_TOTAL: tissue Kidney; for LIVER: tissue Liver; for A/G / ALP / ALT / AST / BUN / CRE / Ca / Cl / DBIL / GLC / IP / K / LDH / Na / PL / RALB / TBIL / TC / TG / TP / gamma-GTP: tissue Plasma
[1] = 0 mg/kg, 72 h, dose level Control, time 3 day
[2] = 0 mg/kg, […], dose level Control, time 7 day
[3] = 0 mg/kg, […], dose level Control, time 14 day
[4] = 0 mg/kg, […], dose level Control, time 28 day
[5] = 100 mg/kg, 72 h, dose level Low, time 3 day
[6] = 100 mg/kg, […], dose level Low, time 7 day
[7] = 100 mg/kg, […], dose level Low, time 14 day
[8] = 100 mg/kg, […], dose level Low, time 28 day

CC(S)C(=O)NCC(=O)O (centres undefined) [TIOPRONIN]
TERMINAL_BW [1]: 222.4 g
APTT [1]: 22.6 s
Bas [1]: 0%
Eos [1]: 1%
Fbg [1]: 300.2 mg/dL
Hb [1]: 13.5 g/dL
Ht [1]: 40.8%
Lym [1]: 81.6%
MCH [1]: 20.9 pg
MCHC [1]: 33.1%
MCV [1]: 63 fL
Mono [1]: 2.6%
Neu [1]: 14.2%
PT [1]: 15.7 s
Plat [1]: 112.4 x10_4/uL
RBC [1]: 647.2 x10_4/ul
Ret [1]: 6.8%
WBC [1]: 142.5 x10_2/uL
KIDNEY_L [1]: 1 g
KIDNEY_R [1]: 1 g
KIDNEY_TOTAL [1]: 2 g
LIVER [1]: 10.5 g
A/G [1]: 1.1
ALP [1]: 1395.4 IU/L
ALT [1]: 46.2 IU/L
AST [1]: 73.8 IU/L
BUN [1]: 17.4 mg/dL
CRE [1]: 0.2 mg/dL
Ca [1]: 10.5 mg/dL
Cl [1]: 106 meq/L
DBIL [1]: 0 mg/dL
GLC [1]: 202 mg/dL
IP [1]: 7.2 mg/dL
K [1]: 4.3 meq/L
LDH [1]: 188 IU/L
Na [1]: 140.8 meq/L
PL [1]: 137.6 mg/dL
RALB [1]: 2.9 g/dL
TBIL [1]: 0.004 mg/dL
TC [1]: 75 mg/dL
TG [1]: 86.6 mg/dL
TP [1]: 5.5 g/dL
gamma-GTP [1]: 1.6 IU/L
TERMINAL_BW [2]: 250.2 g
TERMINAL_BW [3]: 315.5 g
TERMINAL_BW [4]: 385.3 g
APTT [2]: 21.4 s
Bas [2]: 0%
Eos [2]: 0.8%
Fbg [2]: 311.2 mg/dL
Hb [2]: 13.8 g/dL
Ht [2]: 40.6%
Lym [2]: 83%
MCH [2]: 20.7 pg
MCHC [2]: 33.9%
MCV [2]: 61 fL
Mono [2]: 2%
Neu [2]: 13.4%
PT [2]: 15.4 s
Plat [2]: 118.9 x10_4/uL
RBC [2]: 667 x10_4/ul
Ret [2]: 5.6%
WBC [2]: 124.9 x10_2/uL
APTT [3]: 22.9 s
Bas [3]: 0%
Eos [3]: 1%
Fbg [3]: 299.2 mg/dL
Hb [3]: 14.1 g/dL
Ht [3]: 40.4%
Lym [3]: 82.6%
MCH [3]: 20.5 pg
MCHC [3]: 34.8%
MCV [3]: 58.9 fL
Mono [3]: 2.2%
Neu [3]: 14%
PT [3]: 15.6 s
Plat [3]: 118.7 x10_4/uL
RBC [3]: 686.8 x10_4/ul
Ret [3]: 5.3%
WBC [3]: 128.8 x10_2/uL
APTT [4]: 24.5 s
Bas [4]: 0%
Eos [4]: 1%
Fbg [4]: 305.6 mg/dL
Hb [4]: 15.3 g/dL
Ht [4]: 43.2%
Lym [4]: 81.8%
MCH [4]: 19.6 pg
MCHC [4]: 35.3%
MCV [4]: 55.5 fL
Mono [4]: 1.8%
Neu [4]: 14.2%
PT [4]: 16 s
Plat [4]: 91.2 x10_4/uL
RBC [4]: 778.2 x10_4/ul
Ret [4]: 2.8%
WBC [4]: 114.1 x10_2/uL
KIDNEY_L [2]: 1.1 g
KIDNEY_R [2]: 1.1 g
KIDNEY_TOTAL [2]: 2.2 g
KIDNEY_L [3]: 1.2 g
KIDNEY_R [3]: 1.2 g
KIDNEY_TOTAL [3]: 2.4 g
KIDNEY_L [4]: 1.3 g
KIDNEY_R [4]: 1.4 g
KIDNEY_TOTAL [4]: 2.7 g
LIVER [2]: 11.5 g
LIVER [3]: 13.7 g
LIVER [4]: 15.9 g
A/G [2]: 1.2
ALP [2]: 1704.2 IU/L
ALT [2]: 37.4 IU/L
AST [2]: 68.6 IU/L
BUN [2]: 18.8 mg/dL
CRE [2]: 0.2 mg/dL
Ca [2]: 10.7 mg/dL
Cl [2]: 107.2 meq/L
DBIL [2]: 0 mg/dL
GLC [2]: 191.8 mg/dL
IP [2]: 7.1 mg/dL
K [2]: 4.5 meq/L
LDH [2]: 146.4 IU/L
Na [2]: 141.6 meq/L
PL [2]: 158.6 mg/dL
RALB [2]: 3 g/dL
TBIL [2]: 0.004 mg/dL
TC [2]: 83.2 mg/dL
TG [2]: 107.2 mg/dL
TP [2]: 5.4 g/dL
gamma-GTP [2]: 1.8 IU/L
A/G [3]: 1.3
ALP [3]: 1485.6 IU/L
ALT [3]: 37 IU/L
AST [3]: 63.4 IU/L
BUN [3]: 19 mg/dL
CRE [3]: 0.2 mg/dL
Ca [3]: 10.3 mg/dL
Cl [3]: 105 meq/L
DBIL [3]: 0 mg/dL
GLC [3]: 205.8 mg/dL
IP [3]: 6.9 mg/dL
K [3]: 4.5 meq/L
LDH [3]: 157.8 IU/L
Na [3]: 139.2 meq/L
PL [3]: 135.6 mg/dL
RALB [3]: 3.1 g/dL
TBIL [3]: 0.006 mg/dL
TC [3]: 63.6 mg/dL
TG [3]: 135.6 mg/dL
TP [3]: 5.6 g/dL
gamma-GTP [3]: 2.6 IU/L
A/G [4]: 1.2
ALP [4]: 1102.4 IU/L
ALT [4]: 35 IU/L
AST [4]: 61.4 IU/L
BUN [4]: 19.2 mg/dL
CRE [4]: 0.2 mg/dL
Ca [4]: 10.8 mg/dL
Cl [4]: 106.8 meq/L
DBIL [4]: 0 mg/dL
GLC [4]: 202.6 mg/dL
IP [4]: 6.7 mg/dL
K [4]: 4.1 meq/L
LDH [4]: 152.6 IU/L
Na [4]: 143.2 meq/L
PL [4]: 151.4 mg/dL
RALB [4]: 3.3 g/dL
TBIL [4]: 0.01 mg/dL
TC [4]: 78.2 mg/dL
TG [4]: 135.4 mg/dL
TP [4]: 5.9 g/dL
gamma-GTP [4]: 2 IU/L
TERMINAL_BW [5]: 228.4 g
APTT [5]: 22 s
Bas [5]: 0%
Eos [5]: 1%
Fbg [5]: 299.8 mg/dL
Hb [5]: 13 g/dL
Ht [5]: 39.1%
Lym [5]: 77.8%
MCH [5]: 19.9 pg
MCHC [5]: 33.2%
MCV [5]: 60.1 fL
Mono [5]: 2.8%
Neu [5]: 17.8%
PT [5]: 15.6 s
Plat [5]: 120.9 x10_4/uL
RBC [5]: 652 x10_4/ul
Ret [5]: 6.7%
WBC [5]: 105.6 x10_2/uL
KIDNEY_L [5]: 1 g
KIDNEY_R [5]: 1 g
KIDNEY_TOTAL [5]: 2 g
LIVER [5]: 10.8 g
A/G [5]: 1.2
ALP [5]: 1580 IU/L
ALT [5]: 43.6 IU/L
AST [5]: 73.6 IU/L
BUN [5]: 17 mg/dL
CRE [5]: 0.2 mg/dL
Ca [5]: 10.6 mg/dL
Cl [5]: 106.4 meq/L
DBIL [5]: 0 mg/dL
GLC [5]: 189.4 mg/dL
IP [5]: 7.4 mg/dL
K [5]: 4.4 meq/L
LDH [5]: 165.2 IU/L
Na [5]: 140.8 meq/L
PL [5]: 139.8 mg/dL
RALB [5]: 3.1 g/dL
TBIL [5]: 0.008 mg/dL
TC [5]: 76.6 mg/dL
TG [5]: 107.2 mg/dL
TP [5]: 5.6 g/dL
gamma-GTP [5]: 1.6 IU/L
TERMINAL_BW [6]: 255.1 g
TERMINAL_BW [7]: 321.9 g
TERMINAL_BW [8]: 376.7 g
APTT [6]: 22.4 s
Bas [6]: 0%
Eos [6]: 0.8%
Fbg [6]: 305.8 mg/dL
Hb [6]: 13.5 g/dL
Ht [6]: 39.7%
Lym [6]: 79.2%
MCH [6]: 20.9 pg
MCHC [6]: 34.1%
MCV [6]: 61.4 fL
Mono [6]: 2.4%
Neu [6]: 16.4%
PT [6]: 15.8 s
Plat [6]: 125.6 x10_4/uL
RBC [6]: 647 x10_4/ul
Ret [6]: 6.1%
WBC [6]: 109.7 x10_2/uL
APTT [7]: 24.5 s
Bas [7]: 0%
Eos [7]: 1%
Fbg [7]: 297 mg/dL
Hb [7]: 14.3 g/dL
Ht [7]: 41.1%
Lym [7]: 80.2%
MCH [7]: 20.8 pg
MCHC [7]: 34.8%
MCV [7]: 59.9 fL
Mono [7]: 2.4%
Neu [7]: 15.4%
PT [7]: 15.6 s
Plat [7]: 116.6 x10_4/uL
RBC [7]: 686.2 x10_4/ul
Ret [7]: 5.6%
WBC [7]: 147.7 x10_2/uL
APTT [8]: 25.2 s
Bas [8]: 0%
Eos [8]: 1.2%
Fbg [8]: 325.8 mg/dL
Hb [8]: 15.2 g/dL
Ht [8]: 43.1%
Lym [8]: 80.6%
MCH [8]: 19.6 pg
MCHC [8]: 35.2%
MCV [8]: 55.6 fL
Mono [8]: 2.6%
Neu [8]: 14.6%
PT [8]: 15.9 s
Plat [8]: 94 x10_4/uL
RBC [8]: 775.4 x10_4/ul
Ret [8]: 2.8%
WBC [8]: 122.4 x10_2/uL
KIDNEY_L [6]: 1.1 g
KIDNEY_R [6]: 1.1 g
KIDNEY_TOTAL [6]: 2.2 g
KIDNEY_L [7]: 1.2 g
KIDNEY_R [7]: 1.3 g
KIDNEY_TOTAL [7]: 2.5 g
KIDNEY_L [8]: 1.3 g
KIDNEY_R [8]: 1.4 g
KIDNEY_TOTAL [8]: 2.7 g
LIVER [6]: 11.2 g
LIVER [7]: 14.1 g
LIVER [8]: 15.3 g
A/G [6]: 1.1
ALP [6]: 1665.2 IU/L
ALT [6]: 37.2 IU/L
AST [6]: 66.8 IU/L
BUN [6]: 16.8 mg/dL
CRE [6]: 0.1 mg/dL
Ca [6]: 10.6 mg/dL
Cl [6]: 107.4 meq/L
DBIL [6]: 0 mg/dL
GLC [6]: 189.8 mg/dL
IP [6]: 7.3 mg/dL
K [6]: 4.2 meq/L
LDH [6]: 146.2 IU/L
Na [6]: 141.8 meq/L
PL [6]: 139.4 mg/dL
RALB [6]: 3 g/dL
TBIL [6]: 0.002 mg/dL
TC [6]: 70.6 mg/dL
TG [6]: 103.2 mg/dL
TP [6]: 5.6 g/dL
gamma-GTP [6]: 2.2 IU/L
A/G [7]: 1.2
ALP [7]: 1412.8 IU/L
ALT [7]: 37.4 IU/L
AST [7]: 66.6 IU/L
BUN [7]: 18.2 mg/dL
CRE [7]: 0.2 mg/dL
Ca [7]: 10.4 mg/dL
Cl [7]: 107.4 meq/L
DBIL [7]: 0 mg/dL
GLC [7]: 199 mg/dL
IP [7]: 6.4 mg/dL
K [7]: 4.3 meq/L
LDH [7]: 135.6 IU/L
Na [7]: 141.6 meq/L
PL [7]: 134 mg/dL
RALB [7]: 3.1 g/dL
TBIL [7]: 0.006 mg/dL
TC [7]: 65.4 mg/dL
TG [7]: 121 mg/dL
TP [7]: 5.7 g/dL
gamma-GTP [7]: 2 IU/L
A/G [8]: 1.2
ALP [8]: 1019.8 IU/L
ALT [8]: 34.6 IU/L
AST [8]: 58.2 IU/L
BUN [8]: 19.2 mg/dL
CRE [8]: 0.2 mg/dL
Ca [8]: 10.8 mg/dL
Cl [8]: 106.8 meq/L
DBIL [8]: 0 mg/dL
GLC [8]: 191 mg/dL
IP [8]: 6.2 mg/dL
K [8]: 4 meq/L
LDH [8]: 115.8 IU/L
Na [8]: 142.8 meq/L
PL [8]: 142.4 mg/dL
RALB [8]: 3.2 g/dL
TBIL [8]: 0.008 mg/dL
TC [8]: 77.4 mg/dL
TG [8]: 136.4 mg/dL
TP [8]: 5.9 g/dL
gamma-GTP [8]: 1.6 IU/L
